In article PMC8214093, “Structural basis of KdpD histidine kinase binding to the second messenger c-di-AMP” (The Journal of Biological Chemistry, 2021):

Biological target: USPSa-WT (Staphylococcus aureus, UniProt A0A7U7EVR3)
Experiment: biochemical
Format: binding
Details: His6-USPSa WT, MST, changes in initial fluorescence; for Dissociation Constant (KD) ± Standard Deviation: columns without unit
Method: For labeling, the proteins were diluted to a concentration of 800 nM in binding buffer (50 mM potassium phosphate, pH 8.0, 800 mM NaCl, and 0.05% Tween 20), mixed with an equal volume of RED-Tris-NTA dye (80 nM), and incubated on ice in the dark for 30 min. […] The labeled proteins and the ligand dilutions were then mixed in a 1:1 ratio and incubated on ice in the dark for 30 min.
The samples were then loaded into Monolith standard-treated capillaries in triplicate, and the changes in fluorescence were measured with 40% LED power and 20% IR-laser power for an on-time of 20-s at 23 °C. To determine the binding affinity, the ligand-dependent changes in the intensity of the initial fluorescence, or the thermophoretic mobility, were analyzed according to the law of mass action in a standard fitting mode of MO.Affinity analysis software (version 2.3). To exclude the possibility of nonspecific binding of the ligand to the His6-tag (on USPSa) or ligand-induced USP adsorption to labware or due to aggregation, we performed His6-peptide and EDTA tests, respectively ([91]). […] In the EDTA test, the binding buffer additionally contained 50 mM EDTA to disrupt the interaction between His6-USP and the RED-Tris-NTA dye.

USPSa-WT, sequence (A0A7U7EVR3 entry or part of it): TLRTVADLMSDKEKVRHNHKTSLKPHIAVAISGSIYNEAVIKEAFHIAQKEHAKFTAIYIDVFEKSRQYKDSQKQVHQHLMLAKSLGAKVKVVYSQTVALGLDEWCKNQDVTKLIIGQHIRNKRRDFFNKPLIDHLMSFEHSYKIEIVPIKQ

SMILES	Dissociation Constant (KD) ± Standard Deviation	Kd (Dissociation Constant (KD) ± Standard Deviation)
Nc1nc2c(ncn2[C@@H]2O[C@@H]3COP(=O)(O)O[C@H]4[C@@H](O)[C@H](n5cnc6c(=O)[nH]c(N)nc65)O[C@@H]4COP(=O)(O)O[C@H]3[C@H]2O)c(=O)[nH]1 [c-di-GMP]	No Binding Observed	–
Nc1ncnc2c1ncn2[C@@H]1O[C@@H]2COP(=O)(O)O[C@H]3[C@@H](O)[C@H](n4cnc5c(N)ncnc54)O[C@@H]3COP(=O)(O)O[C@H]3[C@@H](O)[C@H](n4cnc5c(N)ncnc54)O[C@@H]3COP(=O)(O)O[C@H]2[C@H]1O [c-tri-AMP]	No Binding Observed	–
Nc1ncnc2c1ncn2[C@@H]1O[C@@H]2COP(=O)(O)O[C@H]2[C@H]1O [c-AMP, cyclic AMP]	–	10 ± 0.71 mM
